Data as given in US20140309244A1, “NOVEL MICROBIOCIDES” (SYNGENTA PARTICIPATIONS AG, priority 2010, published 2014).

Key:
Pyrenophora teres = Pyrenophora teres / barley / leaf disc preventative (net blotch); assay type: in vivo; settings: foliar, barley cv Hasso leaf segments, inoculated two days after application, assessed 5-7 days after application, read-out: control of Pyrenophora teres (disease control compared to untreated)
[1] = test system: Mycosphaerella graminicola (Septoria tritici); assay: Mycosphaerella graminicola (Septoria tritici) / liquid culture (Septoria blotch); assay type: cell-based; settings: Zymoseptoria tritici, PDB potato dextrose broth, 96-well plate, 24° C., 4-5 days after application, read-out: control of Mycosphaerella graminicola (inhibition of growth, photometric)
[2] = test system: Glomerella lagenarium (Colletotrichum lagenarium); assay: Glomerella lagenarium (Colletotrichum lagenarium) / liquid culture (anthracnose); assay type: cell-based; settings: Colletotrichum orbiculare, PDB potato dextrose broth, 96-well plate, 24° C., 3-4 days after application, read-out: control of Glomerella lagenarium (inhibition of growth, photometric)
[3] = test system: Phaeosphaeria nodorum (Septoria nodorum); assay: Phaeosphaeria nodorum (Septoria nodorum) / wheat / leaf disc preventative (glume blotch); assay type: in vivo; settings: Parastagonospora nodorum, foliar, wheat cv Kanzler leaf segments, inoculated 2 days after application, assessed 5-7 days after application, read-out: control of Phaeosphaeria nodorum (percent disease control compared to untreated)
[4] = test system: Thanatephorus cucumeris (Rhizoctonia solani); assay: Thanatephorus cucumeris (Rhizoctonia solani) / liquid culture (foot rot, damping-off); assay type: cell-based; settings: liquid culture of mycelia fragments, PDB potato dextrose broth, 96-well plate, 24° C., 3-4 days after application, read-out: control of Thanatephorus cucumeris (inhibition of growth, photometric)
Protocol: Thanatephorus cucumeris (Rhizoctonia solani)/Liquid Culture (Foot Rot, Damping-Off): Mycelia fragments of a newly grown liquid culture of the fungus are directly mixed into nutrient broth (PDB potato dextrose broth). After placing a DMSO solution of the test compounds into a 96-well microtiter plate at an application rate of 200 ppm, the nutrient broth containing the fungal material was added. The test plates were incubated at 24° C. and the inhibition of growth was determined photometrically 3-4 days after application.

[5] = test system: Blumeria graminis f. sp. tritici (Erysiphe graminis f. sp. tritici); assay: Blumeria graminis f. sp. tritici (Erysiphe graminis f. sp. tritici) / wheat / leaf disc preventative (powdery mildew on wheat); assay type: in vivo; settings: foliar, wheat cv. Kanzler leaf segments, inoculated 1 day after application, assessed 6-8 days after application, read-out: control of Blumeria graminis (percent disease control compared to untreated)
Gaeumannomyces graminis = Gaeumannomyces graminis / liquid culture (take-all of cereals); assay type: cell-based; settings: liquid culture of mycelial fragments, PDB potato dextrose broth, 96-well plate, 24° C., 4-5 days after application, read-out: control of Gaeumannomyces graminis (inhibition of growth, photometric)
[6] = test system: Puccinia recondita f. sp. tritici; assay: Puccinia recondita f. sp. tritici / wheat / leaf disc curative (brown rust); assay type: in vivo; settings: foliar, wheat cv Kanzler leaf segments, applied 1 day after inoculation, assessed 6-8 days after application, read-out: control of Puccinia recondita f. sp. tritici (percent disease control compared to untreated)
Protocol: Puccinia recondita f. sp. tritici/Wheat/Leaf Disc Curative (Brown Rust): Wheat leaf segments cv Kanzler were placed on agar in 24-well plates. The leaf segments were inoculated with a spore suspension of the fungus. The plates were stored in darkness at 19° C. and 75% relative humidity. The formulated test compound diluted in water was applied at an application rate of 200 ppm 1 day after inoculation.

[7] = test system: Puccinia recondita f. sp. tritici; assay: Puccinia recondita f. sp. tritici / wheat / leaf disc preventative (brown rust); assay type: in vivo; settings: foliar, wheat cv Kanzler leaf segments, inoculated 1 day after application, assessed 7-9 days after application, read-out: control of Puccinia recondita f. sp. tritici (percent disease control compared to untreated)
Protocol: Puccinia recondita f. sp. tritici/Wheat/Leaf Disc Preventative (Brown Rust) Wheat leaf segments cultivated variety (cv) Kanzler were placed on agar in 24-well plates and sprayed with formulated test compound diluted in water at an application rate of 200 ppm. The leaf disks were inoculated with a spore suspension of the fungus 1 day after application. The inoculated leaf segments were incubated at 19° C. and 75% relative humidity under a light regime of 12/12 h (light/dark) in a climate cabinet and the activity of a compound was assessed as percent disease control compared to untreated when an appropriate level of disease damage appears in untreated check leaf segments (7-9 days after application). […].103

[8] = test system: Monographella nivalis (Microdochium nivale); assay: Monographella nivalis (Microdochium nivale) / liquid culture (foot rot cereals); assay type: cell-based; settings: PDB potato dextrose broth, 96-well plate, 24° C., 4-5 days after application, read-out: control of Monographella nivalis (inhibition of growth, photometric)
Protocol: Monographella nivalis (Microdochium nivale)/Liquid Culture (Foot Rot Cereals): Conidia of the fungus from cryogenic storage were directly mixed into nutrient broth (PDB potato dextrose broth). After placing a DMSO solution of test compound into a 96-well microtiter plate at an application rate of 200 ppm, the nutrient broth containing the fungal spores was added. The test plates were incubated at 24° C. and the inhibition of growth was determined photometrically 4-5 days after application. […].103

[9] = test system: Botryotinia fuckeliana (Botrytis cinerea); assay: Botryotinia fuckeliana (Botrytis cinerea) / liquid culture (gray mould); assay type: cell-based; settings: Vogels broth, 96-well plate, 24° C., 3-4 days after application, read-out: control of Botryotinia fuckeliana (inhibition of growth, photometric)
[10] = test system: Mycosphaerella arachidis (Cercospora arachidicola); assay: Mycosphaerella arachidis (Cercospora arachidicola) / liquid culture (early leaf spot); assay type: cell-based; settings: PDB potato dextrose broth, 96-well plate, 24° C., 4-5 days after application, read-out: control of Mycosphaerella arachidis (inhibition of growth, photometric)
[11] = test system: Magnaporthe grisea (Pyricularia oryzae); assay: whole plant or invertebrate; assay type: in vivo; settings: foliar, read-out: control of Magnaporthe grisea (percent disease control compared to untreated)

CCC(CO/N=C(\C)c1cccc(C)n1)Cc1cccc(/C(C)=N/OC)n1 (centres unmarked) [P.04]
≥ 80%: pest or weed control at 200 ppm (Pyrenophora teres) | inhibition at 200 ppm [1] | inhibition at 200 ppm [2] | pest or weed control at 200 ppm [3] | inhibition at 200 ppm [4] | pest or weed control at 200 ppm [5] | inhibition at 200 ppm (Gaeumannomyces graminis) | pest or weed control at 200 ppm [6] | pest or weed control at 200 ppm [7] | inhibition at 200 ppm [8] | inhibition at 200 ppm [9] | inhibition at 200 ppm [10]

CO/N=C(\C)c1cccc(CCCO/N=C(\C)c2cc(C)cc(C)n2)n1 [P.10]
≥ 80%: pest or weed control at 200 ppm (Pyrenophora teres) | inhibition at 200 ppm [1] | inhibition at 200 ppm [2] | pest or weed control at 200 ppm [3] | inhibition at 200 ppm [4] | pest or weed control at 200 ppm [5] | inhibition at 200 ppm (Gaeumannomyces graminis) | pest or weed control at 200 ppm [6] | pest or weed control at 200 ppm [7] | inhibition at 200 ppm [8] | inhibition at 200 ppm [9] | inhibition at 200 ppm [10]

CO/N=C(\C)c1cccc(CCCO/N=C(\C)c2cccc(C)n2)n1 [P.12]
≥ 80%: pest or weed control at 200 ppm (Pyrenophora teres) | inhibition at 200 ppm [1] | inhibition at 200 ppm [2] | pest or weed control at 200 ppm [3] | inhibition at 200 ppm [4] | pest or weed control at 200 ppm [5] | inhibition at 200 ppm (Gaeumannomyces graminis) | pest or weed control at 200 ppm [6] | pest or weed control at 200 ppm [7] | inhibition at 200 ppm [8] | inhibition at 200 ppm [9] | inhibition at 200 ppm [10]

CON=C(c1ccccc1)c1cccc(CCCO/N=C(\C)c2cccc(C)n2)n1 [P.24]
≥ 80%: pest or weed control at 200 ppm (Pyrenophora teres) | inhibition at 200 ppm [1] | inhibition at 200 ppm [2] | pest or weed control at 200 ppm [3] | inhibition at 200 ppm [4] | pest or weed control at 200 ppm [5] | inhibition at 200 ppm (Gaeumannomyces graminis) | pest or weed control at 200 ppm [6] | pest or weed control at 200 ppm [7] | inhibition at 200 ppm [8] | inhibition at 200 ppm [9] | inhibition at 200 ppm [10]

CO/N=C(\C)c1cccc(CCCO/N=C(\C)c2nc(C)cc(C)n2)n1 [P.62, 1-(6-(3-[1-(4,6-dimethyl-pyrimidin-2-yl)-eth-(E)-ylideneaminooxy]-propyl)-pyridin-2-yl)-ethanone O-methyl oxime]
≥ 80%: inhibition at 200 ppm [1] | inhibition at 200 ppm [4] | pest or weed control at 200 ppm [11] | pest or weed control at 200 ppm [6] | inhibition at 200 ppm [9] | inhibition at 200 ppm [10]

CO/N=C(\C)c1cccc(CCCO/N=C2\CCCc3c2nc2ncccc2c3C)n1 [P.72]
≥ 80%: pest or weed control at 200 ppm (Pyrenophora teres) | inhibition at 200 ppm [1] | inhibition at 200 ppm [2] | pest or weed control at 200 ppm [3] | pest or weed control at 200 ppm [11] | pest or weed control at 200 ppm [5] | pest or weed control at 200 ppm [6] | pest or weed control at 200 ppm [7] | inhibition at 200 ppm [9]

C=CCOCCCc1cccc(/C(C)=N/OCCCc2cccc(/C(C)=N/OC)n2)n1 [P.74]
≥ 80%: pest or weed control at 200 ppm (Pyrenophora teres) | inhibition at 200 ppm [1] | pest or weed control at 200 ppm [3] | pest or weed control at 200 ppm [11] | pest or weed control at 200 ppm [5] | inhibition at 200 ppm (Gaeumannomyces graminis) | inhibition at 200 ppm [8] | inhibition at 200 ppm [9] | inhibition at 200 ppm [10]

COCCCc1cccc(/C(C)=N/OCCCc2cccc(/C(C)=N/OC)n2)n1 [P.76]
≥ 80%: pest or weed control at 200 ppm (Pyrenophora teres) | inhibition at 200 ppm [1] | inhibition at 200 ppm [2] | pest or weed control at 200 ppm [3] | pest or weed control at 200 ppm [11] | inhibition at 200 ppm (Gaeumannomyces graminis) | inhibition at 200 ppm [8] | inhibition at 200 ppm [9] | inhibition at 200 ppm [10]

CO/N=C(\C)c1cccc(CCCO/N=C2\CCCc3c2nc2cc(OC)c(OC)cc2c3C)n1 [P.82]
≥ 80%: pest or weed control at 200 ppm (Pyrenophora teres) | inhibition at 200 ppm [1] | inhibition at 200 ppm [2] | pest or weed control at 200 ppm [3] | inhibition at 200 ppm [4] | pest or weed control at 200 ppm [11] | pest or weed control at 200 ppm [5] | inhibition at 200 ppm [8] | inhibition at 200 ppm [9] | inhibition at 200 ppm [10]

CO/N=C(\C)c1cccc(CCCO/N=C2\CCCc3cc4cc(Cl)ccc4nc32)n1 [P.96]
≥ 80%: pest or weed control at 200 ppm (Pyrenophora teres) | inhibition at 200 ppm [1] | inhibition at 200 ppm [2] | pest or weed control at 200 ppm [3] | inhibition at 200 ppm [4] | pest or weed control at 200 ppm [11] | pest or weed control at 200 ppm [5] | inhibition at 200 ppm (Gaeumannomyces graminis) | inhibition at 200 ppm [8] | inhibition at 200 ppm [9] | inhibition at 200 ppm [10]

CO/N=C(\C)c1cccc(CCCO/N=C2\CCCc3c2nc2ccccc2c3C2CC2)n1 [P.97]
≥ 80%: pest or weed control at 200 ppm (Pyrenophora teres) | inhibition at 200 ppm [1] | inhibition at 200 ppm [2] | pest or weed control at 200 ppm [3] | pest or weed control at 200 ppm [11] | pest or weed control at 200 ppm [5] | pest or weed control at 200 ppm [6] | pest or weed control at 200 ppm [7] | inhibition at 200 ppm [8] | inhibition at 200 ppm [9] | inhibition at 200 ppm [10]
